From patent US20050288264A2, “Dosage Regimen and Pharmaceutical Composition for Emergency Contraception” (priority 2001, published 2005)
Read-outs that look alike come from different tables or passages of the source.

Format: in vivo, women
Procedure: The efficacy of the regimen according to this invention was compared with the known regimen administering 0.75-0.75 mg of levonorgestrel 12 hours apart in the following trials.
In a double-blind, randomized, multicentre, multinational trial 1,356 women received 0.75-0.75 mg of levonorgestrel at 12-hour interval in the traditional way, while 1,356 received in a single dose 1.5 ± 0.2 mg of levonorgestrel within 72 hours of the unprotected coitus.
The incidence of vomiting was 1.4% in both groups. As the new regimen also has the advantageous properties resulting from the lack of the estrogen component, the incidence of nausea, feeling of sickness, vomiting was apparently low.
The incidence of menstrual disorders was not increased either by the single administration of 1.5 mg dose of levonorgestrel compared to the administration of two 0.75 mg doses. The incidence of menstrual disorders was 30.9% in both groups.

C#C[C@]1(O)CC[C@H]2[C@@H]3CCC4=CC(=O)CC[C@@H]4[C@H]3CC[C@@]21CC [levonorgestrel]
Prevented fraction (percent of conception which otherwise might happen prevented by the treatment) (0.75-0.75 mg at 12-hour interval (traditional way)): 77.3% | conception rate (0.75-0.75 mg at 12-hour interval (traditional way), within 72 hours of unprotected coitus, 1,356 women): 1.77% | incidence of other side-effects (diarrhoea, fatigue, dizziness, headache, breast tenderness, lower abdominal pain) (in vivo): not differing significantly | Prevented fraction (percent of conception which otherwise might happen prevented by the treatment) (single dose 1.5 ± 0.2 mg): 81.9% | conception rate (single dose 1.5 ± 0.2 mg within 72 hours of unprotected coitus, 1,356 women): 1.47%
